Where a name gives a salt, the structure may show the parent alone. Read-outs that look alike come from different tables or passages of the source.
Experiments:
[1] = Method: Human subjects diagnosed as suffering from AD are administered 50 mg of an arylimidothiazole derivative, such as levamisole, orally every eight hours for three days. The treatment is repeated every 14 days for a period of 6 months. […] A human patient diagnosed as suffering from Alzheimer's Disease is administered about 50 mg levamisole orally every eight hours for three days. The treatment is repeated every 14 days for a period of 6 months. […] Human subjects diagnosed as suffering from AD are administered 0.05 mg/kg of an arylimidothiazole derivative, such as levamisole, orally every day for a period of six months. […] A human patient diagnosed as suffering from Alzheimer's Disease is identified as having deteriorating symptoms of the disease. The patient is administered about 10 mg levamisole orally once per day for a period of six months.
[2] = system: rat embryonic hippocampal neurons; conditions: 50 μM β-amyloid 25-35
Method: To further determine the effect of alkaline phosphatase inhibitors on βamyloid peptide toxicity, rat embryonic hippocampal neurons in culture were exposed to 50 μM β-amyloid 25-35 in the presence of levamisole concentrations of 250 μM and 500 μM.

[3] = system: calf intestinal alkaline phosphatase; assay: Alkaline phosphatase assay with pNPP substrate, calf intestinal enzyme; type: biochemical; conditions: pNPP 5 mM, pH 5.5 lysis buffer
Method: (§1) Porcine kidney (0.01 U) and calf intestinal (0.002 U) alkaline phosphatases were assayed in the presence of levamisole (200 μM) or vanadate salt (5-500 μM) using pNPP (5 mM) as substrate. The assay was carried out in pH 5.5 lysis buffer. Each bar in FIG. 4 represents the mean of quadruplicates ± the standard deviation. The results of the experiment of Example 4 are illustrated in FIG. 4. […] The effect of treatment on humans with AD using arylimidothiazole derivatives having alkaline phosphatase inhibitory activity is described below in Examples 5-9.

[4] = system: Porcine kidney alkaline phosphatase; assay: Alkaline phosphatase assay with pNPP substrate, porcine kidney enzyme; type: biochemical; conditions: pNPP 5 mM, pH 5.5 lysis buffer
Method: as §1

Hippocampal neurons = assay: Okadaic acid with β-amyloid on hippocampal neurons, LDH efflux; type: cell-based; conditions: 50 nM okadaic acid with 50 μM β-amyloid (β25-35), 24 hours, DME medium, 37° C.
Method: Hippocampal neurons were treated with 50 μM β-amyloid (β25-35)and 50 nM okadaic acid for 24 hours in Dulbeccois Modified Eagle's (DME) medium at 37° C. Following the 24-hour treatment period, an aliquot of media was removed for determination of LDH efflux from the neurons, which is an indicator of cell death. Each bar in FIG. 3, except the bar representing okadaic acid alone, represents the mean of 4 wells ± the standard deviation. The bar representing okadaic acid alone represents the mean of 2 wells ± the standard deviation.

HT4 neurotumor cells = assay: β-amyloid peptide toxicity in HT4 neurotumor cells, LDH release; type: cell-based, rat; conditions: 100 μM inhibitor; 50 μM β-amyloid peptide 25-35 and 250 μM quisqualate; 24 hours after treatment
Method: HT4 neurotumor cells were treated with 50 μM β-amyloid peptide 25-35 and 250 μM quisqualate. The cells were also treated with 100 μM of the following alkaline phosphatase inhibitors: 1,10 phenanthroline, phenylalanine, IBMX, bromotetramisole, purine, and theophylline. The death of the neurons was determined by measuring LDH activity in the media 24 hours after treatment. The release of LDH from the cells into the surrounding media indicates cell death.
FIG. 1 illustrates the results of the study of Example 1. […] Cells subjected to no treatment had only a low level of LDH activity.

[5] = system: Dorsal root ganglion cells; assay: Vinblastine-induced toxicity in dorsal root ganglion cells, live/dead staining; type: cell-based; conditions: Na,K-tartrate 500 μM; NGF 50 ng/ml; vinblastine 500 nM; 24 hours
Method: Dorsal root ganglion cells were treated with Nerve Growth Factor (NGF) (50 ng/ml), vinblastine (500 nM) and Na,K-tartrate (500 μM) for 24 hours. Following the treatment, the dorsal root ganglion cells were stained with ethidium bromide and fluorescein diacetate to stain dead and live cells, respectively.
FIG. 5 illustrates the results of the study of Example 16. Percentage cell viability is determined from the ratio of live cells to total cell number. Each bar in […] represents the mean of 3 wells ± the standard deviation.

SMILES: c1ccc([C@H]2CN3CCSC3=N2)cc1 [levamisole, (-)-(S)-2,3,5,6-tetrahydro-6-phenylimidoazide [2,1-b]thiazole monohydrochloride]
- symptoms of AD ([1]; 50 mg orally every eight hours for three days, repeated every 14 days for 6 months): lessened
- symptoms of AD ([1]; about 10 mg orally once per day for six months): decrease
- death of the neurons, as indicated by the release of LDH ([2]; levamisole 250 μM): reduced
- LDH activity ([2]; levamisole 500 μM): reduced
- Inhibition of calf intestinal alkaline phosphatase ([3]; levamisole 200 μM): little effect
- Inhibition of porcine kidney alkaline phosphatase activity ([4]; levamisole 200 μM): unexpectedly high

SMILES: [O]=[V]([O-])([O-])[O-] [vanadate]
- Inhibition of calf intestinal alkaline phosphatase ([3]; vanadate 100 μM): significantly inhibited
- Inhibition of porcine kidney alkaline phosphatase activity ([4]; vanadate salt 5-500 μM): appear to inhibit

SMILES: C=C1[C@@H](O)[C@@H]2O[C@]3(CC[C@H](/C=C/[C@@H](C)[C@@H]4CC(C)=C[C@@]5(O[C@H](C[C@@](C)(O)C(=O)O)CC[C@H]5O)O4)O3)CC[C@H]2O[C@@H]1[C@@H](O)C[C@H](C)[C@H]1O[C@@]2(CCCCO2)CC[C@H]1C [okadaic acid]
- hippocampal neuronal injury (LDH efflux) (Hippocampal neurons): causes hippocampal neuronal injury

SMILES: CC(C)Cn1c(=O)n(C)c(=O)c2[nH]cnc21 [IBMX]
- LDH activity in the media (cell death) (HT4 neurotumor cells): most effective compound tested

SMILES: O=C(O)C(O)C(O)C(=O)O (single isomer, unassigned) [Na,K-tartrate]
- percentage cell viability in the presence of vinblastine [5]: significantly increased

From patent US5567724A, “Alkaline and acid phosphatase inhibitors in treatment of neurological disorders” (Cortex Pharmaceuticals, Inc., priority 1994, dated 1996)
